We go through 1 molecule from BindingDB's records for doi:10.1016/0960-894X(95)00494-E (1995).

The structures appear in SMILES notation.

For orientation: Ki means the equilibrium dissociation constant of an inhibitor or competing ligand from its target. The low end stands for higher affinity, the high end for lower affinity.

This assay has as its target Xaa-Pro dipeptidase (Sus scrofa). The experiment in a line: Inhibitory activity against porcine kidney prolidase.

In turn, `NCC(=O)[C@@H]1CCC[C@H]1C(=O)O` [2-((1R,2R)-2-Carboxy-cyclopentyl)-2-oxo-ethyl-ammonium; chloride] registered a Ki of 270 nM.
